Test results as given in patent US9549556B2, “Macrocyclic picolinamides as fungicides” (DOW AGROSCIENCES LLC, priority 2013, dated 2017).
Where two headings read alike, the source gives them in different places.

Key:
Puccinia triticina = assay: Wheat brown rust (PUCCRT) disease control on wheat seedlings; type: in vivo; conditions: read-out: PUCCRT disease control rating (% Control); for pest or weed control at 100 ppm: high volume application; for pest or weed control at 121.5 g/ha: 121.5 g/H, low volume (track spray) application
Septoria tritici = assay: Leaf blotch of wheat (SEPTTR) disease control on wheat seedlings; type: in vivo, Mycosphaerella graminicola (anamorph Septoria tritici); conditions: Zymoseptoria tritici, read-out: SEPTTR disease control rating (% Control); for pest or weed control at 100 ppm: high volume application; for pest or weed control at 121.5 g/ha: 121.5 g/H, low volume (track spray) application
Method: Evaluation of Fungicidal Activity: Leaf Blotch of Wheat (Mycosphaerella graminicola; Anamorph: Septoria tritici; Bayer Code […]) Technical grades of materials were dissolved in acetone, which were then mixed with nine volumes of water containing 110 ppm Triton X-100. The fungicide solutions were applied onto wheat seedlings using an automated booth sprayer to run-off. All sprayed plants were allowed to air dry prior to further handling. All fungicides were evaluated using the aforementioned method for their activity vs. all target diseases. Wheat leaf blotch and brown rust activity were also evaluated using track spray applications, in which case the fungicides were formulated as EC formulations, containing 0.1% Trycol 5941 in the spray solutions. Wheat plants (variety Yuma) were grown from seed in a greenhouse in 50% mineral soil/50% soil-less Metro mix until the first leaf was fully emerged, with 7-10 seedlings per pot. These plants were inoculated with an aqueous spore suspension of Septoria tritici either prior to or after fungicide treatments. After inoculation the plants were kept in 100% relative humidity (one day in a dark dew chamber followed by two to three days in a lighted dew chamber at 20° C.) to permit spores to germinate and infect the leaf. The plants were then transferred to a greenhouse set at 20° C. for disease to develop. When disease symptoms were fully expressed on the 1st leaves of untreated plants, infection levels were assessed on a scale of 0 to 100 percent disease severity. Percent disease control was calculated using the ratio of disease severity on treated plants relative to untreated plants.

Pyricularia oryzae = type: in vivo, Magnaporthe grisea (anamorph Pyricularia oryzae); conditions: 1 DP, 100 ppm, rice
Rhyncosporium secalis = assay: Barley scald (RHYNSE) disease control; type: in vivo; conditions: 1 DP, 100 ppm
[1] = tested on: Blumeria graminis f. sp. hordei; assay: Barley powdery mildew (ERYSGH) disease control; type: in vivo; conditions: 1 DP, 100 ppm
Leptosphaeria nodorum = assay: Wheat glume blotch (LEPTNO) disease control; type: in vivo; conditions: 1 DP, 100 ppm
Erysiphe cichoracearum = assay: Powdery mildew of cucumber (ERYSCI) disease control; type: in vivo; conditions: 1 DP, 100 ppm
[2] = tested on: Colletotrichum lagenarium; assay: Cucumber anthracnose (COLLLA) disease control; type: in vivo, Glomerella lagenarium (anamorph Colletotrichum lagenarium); conditions: 1 DP, 100 ppm
Alternaria solani = assay: Tomato early blight (ALTESO) disease control; type: in vivo; conditions: 1 DP, 100 ppm
Uncinula necator = assay: Grape powdery mildew (UNCINE) disease control; type: in vivo; conditions: 1 DP, 100 ppm
Cercospora beticola = assay: Leaf spot of sugar beets (CERCBE) disease control; type: in vivo; conditions: 1 DP, 100 ppm, sugar beet

Structure (SMILES)	pest or weed control at 100 ppm (Puccinia triticina; 24 h, 1DP (1 Day Protectant)) [%]	pest or weed control at 100 ppm (Puccinia triticina; 72 h, 3DC (3 Day Curative)) [%]	pest or weed control at 100 ppm (Septoria tritici; 24 h, 1DP (1 Day Protectant)) [%]	pest or weed control at 100 ppm (Septoria tritici; 72 h, 3DC (3 Day Curative)) [%]	melting point [°C]	pest or weed control at 121.5 g/ha (Puccinia triticina; 24 h, 1DP (1 Day Protectant)) [%]	pest or weed control at 121.5 g/ha (Puccinia triticina; 72 h, 3DC (3 Day Curative)) [%]	pest or weed control at 121.5 g/ha (Septoria tritici; 24 h, 1DP (1 Day Protectant)) [%]	pest or weed control at 121.5 g/ha (Septoria tritici; 72 h, 3DC (3 Day Curative)) [%]	other results
CCCO[C@H]1COC[C@H](NC(=O)c2nccc(OC)c2O)C(=O)O[C@@H](C)[C@@H]1CCC(C)C [Compound 53, 3-hydroxy-N-((3S,7R,8S,9S)-8-isopentyl-9-methyl-2-oxo-7-propoxy-1,5-dioxonan-3-yl)-4-methoxypicolinamide]	> 70	> 70	< 70	< 70	54 to 57	–	–	–	–	–
COc1ccnc(C(=O)N[C@H]2COC[C@H](Oc3ccccc3)[C@@H](CCC(C)C)[C@H](C)OC2=O)c1OCOC(C)=O [Compound 32]	–	–	–	–	44 to 50	> 70	> 70	> 70	> 70	–
COc1ccnc(C(=O)N[C@H]2COC[C@H](OCC3CC3)[C@@H](Cc3ccccc3)[C@H](C)OC2=O)c1OC(C)=O [Compound 87]	> 70	> 70	> 70	> 70	54 to 59	–	–	–	–	–
CCCO[C@H]1COC[C@H](NC(=O)OC(C)(C)C)C(=O)O[C@@H](C)[C@@H]1CCC(C)C [Compound 39, tert-butyl ((3S,7R,8S,9S)-8-isopentyl-9-methyl-2-oxo-7-propoxy-1,5-dioxonan-3-yl)carbamate]	–	–	–	–	74 to 77	–	–	–	–	–
CC(C)CC[C@H]1[C@H](C)OC(=O)[C@@H](NC(=O)OC(C)(C)C)COC[C@@H]1OCc1ccccc1 [Compound 42]	–	–	–	–	70 to 72	–	–	–	–	–
COc1ccnc(C(=O)N[C@H]2COC[C@H](Oc3ccccc3)[C@@H](Cc3ccccc3)[C@H](C)OC2=O)c1O [Compound 77]	–	–	–	–	49 to 54	–	–	–	–	–
COc1ccnc(C(=O)N[C@H]2COC[C@H](OCC(C)C)[C@@H](Cc3ccccc3)[C@H](C)OC2=O)c1OC(C)=O [Compound 79]	–	–	–	–	52 to 57	> 70	> 70	> 70	> 70	–
CC(C)CC[C@H]1[C@H](C)OC(=O)[C@@H](NC(=O)OC(C)(C)C)COC[C@@H]1O [Compound 66, tert-butyl ((3S,7R,8R,9S)-7-hydroxy-8-isopentyl-9-methyl-2-oxo-1,5-dioxonan-3-yl)carbamate]	–	–	–	–	112 to 115	–	–	–	–	–
CC(C)CC[C@H]1[C@H](C)OC(=O)[C@@H](NC(=O)OC(C)(C)C)COC[C@@H]1OC(=O)C1CC1 [Compound 49, (3S,7R,8S,9S)-3-((tert-butoxycarbonyl)amino)-8-isopentyl-9-methyl-2-oxo-1,5-dioxonan-7-yl cyclopropanecarboxylate]	–	–	–	–	92 to 95	–	–	–	–	–
COc1ccnc(C(=O)N[C@H]2COC[C@H](Oc3ccccc3)[C@@H](CCC(C)C)[C@H](C)OC2=O)c1O [Compound 60]	> 70	> 70	> 70	< 70	58 to 62	–	–	–	–	–
COc1ccnc(C(=O)N[C@H]2COC[C@H](OC(=O)C3CC3)[C@@H](CCC(C)C)[C@H](C)OC2=O)c1OCOC(C)=O [Compound 57]	–	–	–	–	45 to 50	> 70	> 70	< 70	> 70	–
COc1ccnc(C(=O)N[C@H]2COC[C@H](OCc3ccccc3)[C@@H](CCC(C)C)[C@H](C)OC2=O)c1OC(C)=O [Compound 67]	–	–	–	–	55 to 61	> 70	> 70	> 70	> 70	–
CCCC[C@H]1[C@H](C)OC(=O)[C@@H](NC(=O)c2nccc(OC)c2O)COC[C@@H]1OCCCC(F)(F)F [Compound 65]	> 70	< 70	> 70	> 70	–	–	–	–	–	–
COc1ccnc(C(=O)N[C@H]2COC[C@H](Oc3ccccc3)[C@@H](Cc3ccccc3)[C@H](C)OC2=O)c1OCOC(C)=O [Compound 84]	–	–	–	–	–	> 70	> 70	> 70	> 70	–
COc1ccnc(C(=O)N[C@H]2COC[C@H](OCC3CC3)[C@@H](Cc3ccccc3)[C@H](C)OC2=O)c1OCOC(C)=O [Compound 80]	> 70	> 70	> 70	> 70	–	> 70	> 70	> 70	> 70	–
CCCC[C@H]1[C@H](C)OC(=O)[C@@H](NC(=O)c2nccc(OC)c2OCOC(C)=O)COC[C@@H]1OCC1CC1 [Compound 6]	–	–	–	–	–	> 70	> 70	> 70	> 70	PYRIOR disease control rating (% Control) (Pyricularia oryzae): A (>70); RHYNSE disease control rating (% Control) (Rhyncosporium secalis): A (>70); ERYSGH disease control rating (% Control) [1]: A (>70); LEPTNO disease control rating (% Control) (Leptosphaeria nodorum): A (>70); ERYSCI disease control rating (% Control) (Erysiphe cichoracearum): A (>70); COLLLA disease control rating (% Control) [2]: A (>70); ALTESO disease control rating (% Control) (Alternaria solani): B (≦70); UNCINE disease control rating (% Control) (Uncinula necator): A (>70); CERCBE disease control rating (% Control) (Cercospora beticola): A (>70)
COc1ccnc(C(=O)N[C@H]2COC[C@H](OC(=O)C3CC3)[C@@H](Cc3ccc(F)cc3)[C@H](C)OC2=O)c1OCOC(C)=O [Compound 59]	–	–	–	–	–	> 70	> 70	> 70	> 70	–
COc1ccnc(C(=O)N[C@H]2COC[C@H](OCc3ccccc3)[C@@H](CCC(C)C)[C@H](C)OC2=O)c1O [Compound 46]	> 70	> 70	> 70	< 70	104 to 106	–	–	–	–	–
CCCC[C@H]1[C@H](C)OC(=O)[C@@H](NC(=O)c2nccc(OC)c2O)COC[C@@H]1OCC1CC1 [Compound 3]	> 70	> 70	> 70	< 70	–	–	–	–	–	–
CCCO[C@H]1COC[C@H](NC(=O)c2nccc(OC)c2OCOC(=O)COCC)C(=O)O[C@@H](C)[C@@H]1Cc1ccc(F)cc1 [Compound 8]	–	–	–	–	–	> 70	> 70	> 70	> 70	–
COc1ccnc(C(=O)N[C@H]2COC[C@H](OCC3CC3)[C@@H](Cc3ccc(F)cc3)[C@H](C)OC2=O)c1OC(C)=O [Compound 28]	–	–	–	–	–	> 70	> 70	> 70	> 70	–
COc1ccnc(C(=O)N[C@H]2COC[C@H](Oc3ccc(C)cc3)[C@@H](Cc3ccc(F)cc3)[C@H](C)OC2=O)c1OC(C)=O [Compound 10]	–	–	–	–	–	> 70	< 70	> 70	> 70	–
CCCO[C@H]1COC[C@H](NC(=O)c2nccc(OC)c2O)C(=O)O[C@@H](C)[C@@H]1Cc1ccc(F)cc1 [Compound 17]	> 70	> 70	> 70	> 70	–	–	–	–	–	–
